The numbers were not newly measured in EP0743854B1, “ANTI-TUMOUR MEDICAL P[…] THE BASIS OF C[…] THE METHOD OF ITS PRODUCTION” (PLIVA, pharmaceutical industry incorporated, priority 1994, dated 1995), which cites them from elsewhere.

For the series the following is noted: lyophylized injection dissolved in water and other aqueous solutions (sodium chloride, glucose, dextrose).

For `N.N.O=C([O-])C1(C(=O)[O-])CCC1.[Pt+2]` [carboplatin, cis-diammine-1,1-cyclobutanedicarboxylate platinum (II)], the stability of solution result is “stable and therefore therapeutically useful for only few hours, at most few days under lower temperature”.
